Tested on: 922993-354-T-J3-PDC complex spheroids, viability
Assay: Anticancer human tumor 922993-354-T-J3-PDC patient-derived endometrial carcinoma cell line growth inhibition [GQUAD]
Conditions: for IC50: curve of first compound; for viability, T/C: stronger effect = lower value
Summary of the method: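 Viability of tumor cells grown as complex spheroids with endothelial and stromal cells, exposed to drug combinations. Top concentration at or near clinical Cmax (else 10 microM), diluted in half-log increments.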

[1] = second compound 0.0316 µM, first compound 0.0316 µM
[2] = second compound 0.0316 µM, first compound 0.1 µM
[3] = second compound 0.0316 µM, first compound 0.316 µM
[4] = second compound 0.0316 µM, first compound 1 µM
[5] = second compound 0.0316 µM, first compound 3.16 µM
[6] = second compound 0.0316 µM, first compound 10 µM
[7] = second compound 0.1 µM, first compound 0.0316 µM
[8] = second compound 0.1 µM, first compound 0.1 µM
[9] = second compound 0.1 µM, first compound 0.316 µM
[10] = second compound 0.1 µM, first compound 1 µM
[11] = second compound 0.1 µM, first compound 3.16 µM
[12] = second compound 0.1 µM, first compound 10 µM
[13] = second compound 0.316 µM, first compound 0.0316 µM
[14] = second compound 0.316 µM, first compound 0.1 µM
[15] = second compound 0.316 µM, first compound 0.316 µM
[16] = second compound 0.316 µM, first compound 1 µM
[17] = second compound 0.316 µM, first compound 3.16 µM
[18] = second compound 0.316 µM, first compound 10 µM
[19] = second compound 1 µM, first compound 0.0316 µM
[20] = second compound 1 µM, first compound 0.1 µM
[21] = second compound 1 µM, first compound 0.316 µM
[22] = second compound 1 µM, first compound 1 µM
[23] = second compound 1 µM, first compound 3.16 µM
[24] = second compound 1 µM, first compound 10 µM
[25] = second compound 3.16 µM, first compound 0.0316 µM
[26] = second compound 3.16 µM, first compound 0.1 µM
[27] = second compound 3.16 µM, first compound 0.316 µM
[28] = second compound 3.16 µM, first compound 1 µM
[29] = second compound 3.16 µM, first compound 3.16 µM
[30] = second compound 3.16 µM, first compound 10 µM
[31] = second compound 10 µM, first compound 0.0316 µM
[32] = second compound 10 µM, first compound 0.1 µM
[33] = second compound 10 µM, first compound 0.316 µM
[34] = second compound 10 µM, first compound 1 µM
[35] = second compound 10 µM, first compound 3.16 µM
[36] = second compound 10 µM, first compound 10 µM
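Further: spheroids exposed to compounds for seven days.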
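Wherever viability, T/C is given: 100% = DMSO vehicle control viability.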

COc1cc(C2c3cc4c(cc3C(OC3OC5COC(C)OC5C(O)C3O)C3COC(=O)C23)OCO4)cc(OC)c1O (stereo unspecified) + Cc1cnc(CNC(=O)c2c(=O)c3ccc(N4CCCN(C)CC4)nc3n3c2sc2ccccc23)cn1
IC50 (second compound 0.0316 µM): > 10 µM
IC50 (second compound 0.1 µM): > 10 µM
IC50 (second compound 0.316 µM): < 0.0316 µM
IC50 (second compound 1 µM): < 0.0316 µM
IC50 (second compound 3.16 µM): < 0.0316 µM
IC50 (second compound 10 µM): < 0.0316 µM
viability, T/C [1]: 82.3%
viability, T/C [2]: 60%
viability, T/C [3]: 60.5%
viability, T/C [4]: 74.5%
viability, T/C [5]: 50.9%
viability, T/C [6]: 49.9%
viability, T/C [7]: 62.3%
viability, T/C [8]: 59.1%
viability, T/C [9]: 53.8%
viability, T/C [10]: 63.6%
viability, T/C [11]: 62.8%
viability, T/C [12]: 39.9%
viability, T/C [13]: 44.1%
viability, T/C [14]: 53.2%
viability, T/C [15]: 38.6%
viability, T/C [16]: 49.7%
viability, T/C [17]: 41.6%
viability, T/C [18]: 34.3%
viability, T/C [19]: 46.8%
viability, T/C [20]: 39.9%
viability, T/C [21]: 49.6%
viability, T/C [22]: 36.1%
viability, T/C [23]: 36%
viability, T/C [24]: 43.4%
viability, T/C [25]: 40.6%
viability, T/C [26]: 47%
viability, T/C [27]: 39.1%
viability, T/C [28]: 46.6%
viability, T/C [29]: 52.4%
viability, T/C [30]: 48.2%
viability, T/C [31]: 47.9%
viability, T/C [32]: 50.3%
viability, T/C [33]: 45.4%
viability, T/C [34]: 38.2%
viability, T/C [35]: 43.4%
viability, T/C [36]: 41%

CC(=O)O[C@H]1C(=O)[C@@]2(C)[C@H]([C@H](OC(=O)c3ccccc3)[C@]3(O)C[C@H](OC(=O)[C@H](O)[C@@H](NC(=O)c4ccccc4)c4ccccc4)C(C)=C1C3(C)C)[C@]1(OC(C)=O)CO[C@@H]1C[C@@H]2O + Cc1cnc(CNC(=O)c2c(=O)c3ccc(N4CCCN(C)CC4)nc3n3c2sc2ccccc23)cn1
IC50 (second compound 0.0316 µM): 8.75 µM
IC50 (second compound 0.1 µM): 9.75 µM
IC50 (second compound 0.316 µM): < 0.0316 µM
IC50 (second compound 1 µM): < 0.0316 µM
IC50 (second compound 3.16 µM): < 0.0316 µM
IC50 (second compound 10 µM): < 0.0316 µM
viability, T/C [1]: 84.5%
viability, T/C [2]: 79.3%
viability, T/C [3]: 97.9%
viability, T/C [4]: 83%
viability, T/C [5]: 70.7%
viability, T/C [6]: 47.3%
viability, T/C [7]: 59.2%
viability, T/C [8]: 86.9%
viability, T/C [9]: 71.6%
viability, T/C [10]: 59.3%
viability, T/C [11]: 74.3%
viability, T/C [12]: 49.5%
viability, T/C [13]: 54.5%
viability, T/C [14]: 49.6%
viability, T/C [15]: 43.3%
viability, T/C [16]: 52.7%
viability, T/C [17]: 73.5%
viability, T/C [18]: 53.3%
viability, T/C [19]: 42.8%
viability, T/C [20]: 58%
viability, T/C [21]: 51.3%
viability, T/C [22]: 46.5%
viability, T/C [23]: 53%
viability, T/C [24]: 46%
viability, T/C [25]: 44.1%
viability, T/C [26]: 50.6%
viability, T/C [27]: 45.9%
viability, T/C [28]: 45.1%
viability, T/C [29]: 67.6%
viability, T/C [30]: 60.3%
viability, T/C [31]: 48.1%
viability, T/C [32]: 45.4%
viability, T/C [33]: 40.8%
viability, T/C [34]: 40.2%
viability, T/C [35]: 46.5%
viability, T/C [36]: 46.4%

COc1ccc([C@@H](O)c2cc(-c3ncnc4cc(N5CCOCC5)ccc34)c(F)cc2Cl)nn1 + CN(C)c1ccc(Nc2c3ccc(NC(=O)CCN4CCCC4)cc3nc3cc(NC(=O)CCN4CCCC4)ccc23)cc1
IC50 (second compound 0.0316 µM): > 10 µM
IC50 (second compound 0.1 µM): > 10 µM
IC50 (second compound 0.316 µM): > 10 µM
IC50 (second compound 1 µM): > 10 µM
IC50 (second compound 3.16 µM): > 10 µM
IC50 (second compound 10 µM): > 10 µM
viability, T/C [1]: 101%
viability, T/C [2]: 111%
viability, T/C [3]: 103%
viability, T/C [4]: 111%
viability, T/C [5]: 104%
viability, T/C [6]: 82.3%
viability, T/C [7]: 105%
viability, T/C [8]: 99.5%
viability, T/C [9]: 89.7%
viability, T/C [10]: 88.2%
viability, T/C [11]: 84.8%
viability, T/C [12]: 71.8%
viability, T/C [13]: 76.6%
viability, T/C [14]: 103%
viability, T/C [15]: 83.6%
viability, T/C [16]: 79%
viability, T/C [17]: 86.9%
viability, T/C [18]: 71.4%
viability, T/C [19]: 119%
viability, T/C [20]: 106%
viability, T/C [21]: 104%
viability, T/C [22]: 101%
viability, T/C [23]: 88.4%
viability, T/C [24]: 79.2%
viability, T/C [25]: 81.5%
viability, T/C [26]: 101%
viability, T/C [27]: 120%
viability, T/C [28]: 105%
viability, T/C [29]: 97.7%
viability, T/C [30]: 75.1%
viability, T/C [31]: 105%
viability, T/C [32]: 110%
viability, T/C [33]: 134%
viability, T/C [34]: 88.6%
viability, T/C [35]: 109%
viability, T/C [36]: 83.1%

From PubChem BioAssay AID2060489 (Molecular Pharmacology Branch, DTP, NCI, 2025)
